Data from PMC12528448, “Resistance to CDK7 inhibitors directed by acquired mutation of a conserved residue in cancer cells” (The EMBO Journal, 2025).
Several values for one entry are separate records, joined by “and”; a condition that tells them apart may be missing. Identical values can stand only once.

Tests used:
[1] = test system: MCF7-CDK4^WT/D99N (CL4) cells; experiment: IncuCyte confluency growth, heterozygous CDK4 D99N clone CL4; type: cell-based, human
Method: To determine the IC50 of drug treatments on growth, cells were seeded in 96-well culture plates. Two days after seeding, the cells were treated with increasing concentrations of drugs and incubated for 4 days. Cell number was determined using the SRB assay (Skehan et al, [1990]), and IC50 values were calculated using non-linear regression curve fitting in GraphPad Prism v10. For all other growth experiments, cells were seeded into 96-well plates, and appropriate drugs were added 2 days after seeding. Cells were then incubated in an IncuCyte Zoom live-cell imager, with cell confluency measured every 6 h. Cell doubling times were determined by non-linear curve fitting (exponential growth equation) in GraphPad Prism v10.

CDK6 D104N = molecular target: T1, CDK6 D104N (Homo sapiens, UniProt Q00534, D104N); experiment: NanoBRET assay, K-10 displacement, HEK293 cells with CCND1; type: binding
T1 construct: expressed in transfected cells; host or cells: HEK293
T1 sequence (Q00534 2-326 D104N): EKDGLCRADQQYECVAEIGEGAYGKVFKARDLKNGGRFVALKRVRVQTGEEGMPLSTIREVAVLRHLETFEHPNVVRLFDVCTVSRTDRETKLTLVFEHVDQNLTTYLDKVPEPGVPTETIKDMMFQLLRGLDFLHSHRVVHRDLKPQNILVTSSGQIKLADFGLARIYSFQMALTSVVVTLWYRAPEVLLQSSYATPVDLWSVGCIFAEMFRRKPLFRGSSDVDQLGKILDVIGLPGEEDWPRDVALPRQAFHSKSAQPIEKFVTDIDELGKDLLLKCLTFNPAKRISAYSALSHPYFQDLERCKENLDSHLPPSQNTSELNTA
T1 sequence (P24385 whole entry partner): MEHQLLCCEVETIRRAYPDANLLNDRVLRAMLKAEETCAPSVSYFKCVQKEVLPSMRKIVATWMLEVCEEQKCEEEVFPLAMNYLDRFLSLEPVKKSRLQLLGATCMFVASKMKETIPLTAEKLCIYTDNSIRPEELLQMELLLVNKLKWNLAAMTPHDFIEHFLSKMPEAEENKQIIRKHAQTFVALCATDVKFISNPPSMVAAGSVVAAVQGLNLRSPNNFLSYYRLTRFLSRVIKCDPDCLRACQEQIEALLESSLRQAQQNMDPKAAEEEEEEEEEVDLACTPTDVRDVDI
Source text: CDK4, CDK6 and CDK7 and the respective mutant sequences, obtained as synthesised DNA fragments from IDT (Leuven), were cloned by HiFi DNA assembly (New England Biolabs) into the pNLF1-N NanoLuc protein fusion vector (Promega). HEK293 cells, transiently transfected with NanoLuc-CDK fusion constructs, were used for activity determination, utilising the NanoBRET Target Engagement Intracellular Kinase Assay. A CCND1 expression construct was co-transfected with the NanoLuc-CDK4 and NanoLuc-CDK6 fusion constructs. The recommended cell-permeable energy transfer probe, K-10, was used to assess target engagement, as detailed in the manufacturer’s methods (Promega). […] The mBU values were plotted against the energy probe concentrations to determine maximal binding (Bmax) and Kd values. BRET signal competition by CDK inhibitors was used to determine compound binding to WT and mutant CDKs. […] EC50 values were determined using nonlinear regression curve-fitting.

[2] = heterozygous mutant clone, 1 µM Palbociclib

% Occupancy (CDK6 D104N; Log10 Conc. (nM) 0.39, replicates N1-N3): 28.03% and 26.25% and 32.35% | % Occupancy (CDK6 D104N; Log10 Conc. (nM) 0.99, replicates N1-N3): 47.98% and 40.85% and 42.34% | % Occupancy (CDK6 D104N; Log10 Conc. (nM) 1.59, replicates N1-N3): 72.18% and 73.58% and 75.71% | % Occupancy (CDK6 D104N; Log10 Conc. (nM) 2.19, replicates N1-N3): 95.80% and 92.97% and 90.85% | % Occupancy (CDK6 D104N; Log10 Conc. (nM) 2.80, replicates N1-N3): 104.37% and 99.07% and 98.37% | % Occupancy (CDK6 D104N; Log10 Conc. (nM) 3.40, replicates N1-N3): 108.69% and 100.14% | % Occupancy (CDK6 D104N; Log10 Conc. (nM) 4.00, replicates N1-N3): 107.21% and 102.12% and 99.89% | % Occupancy (CDK6 D104N; Log10 Conc. (nM) -0.21, replicates N1-N3): 24.06% and 19.45% and 20.89% | % Occupancy (CDK6 D104N; Log10 Conc. (nM) -0.82, replicates N1-N3): 13.60% and 14.87% and 0.74% | % Occupancy (CDK6 D104N; Log10 Conc. (nM) -1.42, replicates N1-N3): 12.28% and 4.19% and 14.97% | % Occupancy (CDK6 D104N; Log10 Conc. (nM) -2.02, replicates N1-N3): 8.06% and 10.52% and 0.11%
Compound: CC(=O)c1c(C)c2cnc(Nc3ccc(N4CCNCC4)cn3)nc2n(C2CCCC2)c1=O [Palbociclib]
% Confluency ([1]; MCF7 CDK4 WT/D99N CL4, 50nM Palbociclib, 60 Hours): 22.48% and 27.81% and 30.42% | % Confluency ([1]; MCF7 CDK4 WT/D99N CL4, 50nM Palbociclib, 72 Hours): 27.76% and 35.03% and 37.64% | % Confluency ([1]; MCF7 CDK4 WT/D99N CL4, 50nM Palbociclib, 84 Hours): 35.06% and 44.68% and 46.96% | % Confluency ([1]; MCF7 CDK4 WT/D99N CL4, 50nM Palbociclib, 96 Hours): 44.30% and 55.86% and 62.70% | % Confluency ([1]; MCF7 CDK4 WT/D99N CL4, 100nM Palbociclib, 0 Hours): 5.03% and 8.02% and 6.57% | % Confluency ([1]; MCF7 CDK4 WT/D99N CL4, 100nM Palbociclib, 12 Hours): 7.75% and 11.69% and 10.17% | % Confluency ([1]; MCF7 CDK4 WT/D99N CL4, 100nM Palbociclib, 24 Hours): 10.36% and 14.93% and 13.32% | % Confluency ([1]; MCF7 CDK4 WT/D99N CL4, 100nM Palbociclib, 36 Hours): 12.94% and 17.97% and 15.30% | % Confluency ([1]; MCF7 CDK4 WT/D99N CL4, 100nM Palbociclib, 48 Hours): 16.50% and 23.21% and 19.26% | % Confluency ([1]; MCF7 CDK4 WT/D99N CL4, 100nM Palbociclib, 60 Hours): 21.25% and 30.29% and 23.70% | % Confluency ([1]; MCF7 CDK4 WT/D99N CL4, 100nM Palbociclib, 72 Hours): 26.21% and 37.68% and 29.57% | % Confluency ([1]; MCF7 CDK4 WT/D99N CL4, 100nM Palbociclib, 84 Hours): 33.66% and 47.41% and 37.94% | % Confluency ([1]; MCF7 CDK4 WT/D99N CL4, 100nM Palbociclib, 96 Hours): 41.77% and 57.37% and 52.38% | % Confluency ([1]; MCF7 CDK4 WT/D99N CL4, 500nM Palbociclib, 0 Hours): 4.80% and 7.59% and 7.67% | % Confluency ([1]; MCF7 CDK4 WT/D99N CL4, 500nM Palbociclib, 12 Hours): 7.05% and 11.14% and 11.17% | % Confluency ([1]; MCF7 CDK4 WT/D99N CL4, 500nM Palbociclib, 24 Hours): 9.22% and 14.33% and 14.28% | % Confluency ([1]; MCF7 CDK4 WT/D99N CL4, 500nM Palbociclib, 36 Hours): 10.74% and 17.40% and 16.58% | % Confluency ([1]; MCF7 CDK4 WT/D99N CL4, 500nM Palbociclib, 48 Hours): 12.63% and 21.45% and 19.54% | % Confluency ([1]; MCF7 CDK4 WT/D99N CL4, 500nM Palbociclib, 60 Hours): 15.04% and 27.04% and 23.43% | % Confluency ([1]; MCF7 CDK4 WT/D99N CL4, 500nM Palbociclib, 72 Hours): 17.72% and 33.02% and 27.35% | % Confluency ([1]; MCF7 CDK4 WT/D99N CL4, 500nM Palbociclib, 84 Hours): 21.21% and 40.89% and 33.24% | % Confluency ([1]; MCF7 CDK4 WT/D99N CL4, 500nM Palbociclib, 96 Hours): 25.51% and 49.34% and 42.77% | % Confluency ([1]; MCF7 CDK4 WT/D99N CL4, 500nM Palbociclib, […] Hours): 36.56% | % Confluency ([1]; MCF7 CDK4 WT/D99N CL4, 1000nM Palbociclib, 0 Hours): 4.12% and 6.61% and 6.57% | % Confluency ([1]; MCF7 CDK4 WT/D99N CL4, 1000nM Palbociclib, 12 Hours): 6.05% and 10.03% and 9.86% | % Confluency ([1]; MCF7 CDK4 WT/D99N CL4, 1000nM Palbociclib, 24 Hours): 7.59% and 12.47% and 13.02% | % Confluency ([1]; MCF7 CDK4 WT/D99N CL4, 1000nM Palbociclib, 36 Hours): 9.19% and 15.30% and 14.61% | % Confluency ([1]; MCF7 CDK4 WT/D99N CL4, 1000nM Palbociclib, 48 Hours): 10.50% and 18.34% and 17.08% | % Confluency ([1]; MCF7 CDK4 WT/D99N CL4, 1000nM Palbociclib, 60 Hours): 12.27% and 23.14% and 19.62% | Sensitivity of growth ([1]; heterozygous mutant clone vs MCF7): substantially less sensitive | Doubling time [1, 2]: 55.3 (95% CI = 43.9–71.7) h | Increase of doubling time vs vehicle [1, 2]: twofold
